pIC50: −log10 of the molar value. The source made the active and inactive calls. The calls are words filed in the database; no cut-off is given here.
How the values were obtained:
[1] = test system: RAW264.7; test: Anti-inflammatory activity against mouse RAW264.7 cells assessed as inhibition of LPS-induced NO production measured after 24 hrs incubation by Griess assay; type: functional, cell-based; conditions: RAW264.7, 24 h
[2] = test system: RAW264.7; test: Anti-inflammatory activity against mouse RAW264.7 cells assessed as inhibition of LPS-induced TNFalpha level pretreated for 1 hr followed by induced with LPS measured after 24 hrs by ELISA; type: functional, cell-based; conditions: dose 2.5-20 µM, time 25.0 hrs
[3] = test system: RAW264.7; test: Anti-inflammatory activity against mouse RAW264.7 cells assessed as inhibition of LPS-induced COX2 level pretreated for 1 hr followed by induced with LPS measured after 24 hrs by ELISA; type: functional, cell-based; conditions: dose 2.5-20 µM, time 25.0 hrs
[4] = test system: RAW264.7; test: Anti-inflammatory activity against mouse RAW264.7 cells assessed as inhibition of LPS-induced NO production at 5 uM measured after 24 hrs incubation by Griess assay relative to control; type: functional
[5] = Cytotoxicity against mouse RAW264.7 cells assessed as cell viability at 5 uM measured after 24 hrs incubation by MTT assay relative to control; type: toxicity, cell-based; conditions: read-out: Activity
[6] = test system: RAW264.7; test: Anti-inflammatory activity against mouse RAW264.7 cells assessed as inhibition of LPS-induced COX2 level at 20 uM pretreated for 1 hr followed by induced with LPS measured after 24 hrs by ELISA (reference value: 95.38 pg/ml); type: functional; conditions: time 25 hrs
[7] = test system: RAW264.7; test: Anti-inflammatory activity against mouse RAW264.7 cells assessed as inhibition of LPS-induced COX2 mRNA level pretreated for 1 hr followed by induced with LPS measured after 6 hrs by quantitative RT-PCR analysis; type: functional, cell-based; conditions: dose 2.5-20 µM, time 7.0 hrs
[8] = target: MAP kinase p38 (Mus musculus) (UniProt P47811+O08911+Q9WUI1+Q9Z1B7); test: Inhibition of LPS-induced p38 MAPK phosphorylation in mouse RAW264.7 cells at 2.5 to 10 uM pretreated for 1 hr followed by induced with LPS measured after 24 hrs by Western blot analysis; type: cell-based; conditions: dose 2.5-10 µM, time 25.0 hrs
[9] = test system: RAW264.7; test: Reduction in LPS-induced nuclear p65 level in mouse RAW264.7 cells at 2.5 to 10 uM pretreated for 1 hr followed by induced with LPS measured after 24 hrs by Western blot analysis; type: functional, cell-based; conditions: dose 2.5-10 µM, time 25.0 hrs
[10] = test system: RAW264.7; test: Anti-inflammatory activity against mouse RAW264.7 cells assessed as inhibition of LPS-induced activation of NF-kappaB p65 by measuring phosphorylation pretreated for 1 hr followed by induced with LPS measured after 24 hrs by Western blot analysis; type: functional, cell-based; conditions: dose 2.5-10 µM, time 25.0 hrs
[11] = test system: RAW264.7; test: Inhibition of JNK protein level in LPS-induced mouse RAW264.7 cells at 2.5 to 10 uM pretreated for 1 hr followed by induced with LPS measured after 24 hrs by Western blot analysis; type: functional, cell-based; conditions: dose 2.5-10 µM, time 25.0 hrs
[12] = test system: RAW264.7; test: Anti-inflammatory activity against mouse RAW264.7 cells assessed as inhibition of LPS-induced TNFalpha mRNA level pretreated for 1 hr followed by induced with LPS measured after 6 hrs by quantitative RT-PCR analysis; type: functional, cell-based; conditions: dose 2.5-20 µM, time 7.0 hrs
[13] = test system: RAW264.7; test: Anti-inflammatory activity against mouse RAW264.7 cells assessed as inhibition of LPS-induced COX2 level at 5 uM pretreated for 1 hr followed by induced with LPS measured after 24 hrs by ELISA (reference value: 95.38 pg/ml); type: functional; conditions: time 25 hrs
[14] = test system: RAW264.7; test: Anti-inflammatory activity against mouse RAW264.7 cells assessed as inhibition of LPS-induced iNOS level pretreated for 1 hr followed by induced with LPS measured after 24 hrs by Western blot analysis; type: functional, cell-based; conditions: dose 2.5-10 µM, time 25.0 hrs
[15] = test system: RAW264.7; test: Inhibition of ERK protein level in LPS-induced mouse RAW264.7 cells at 2.5 to 10 uM pretreated for 1 hr followed by induced with LPS measured after 24 hrs by Western blot analysis; type: functional, cell-based; conditions: dose 2.5-10 µM, time 25.0 hrs
[16] = test system: RAW264.7; test: Anti-inflammatory activity against mouse RAW264.7 cells assessed as inhibition of LPS-induced COX2 level at 2.5 uM pretreated for 1 hr followed by induced with LPS measured after 24 hrs by ELISA (reference value: 95.38 pg/ml); type: functional; conditions: time 25 hrs
[17] = test system: RAW264.7; test: Anti-inflammatory activity against mouse RAW264.7 cells assessed as inhibition of LPS-induced COX2 level at 10 uM pretreated for 1 hr followed by induced with LPS measured after 24 hrs by ELISA (reference value: 95.38 pg/ml); type: functional; conditions: time 25 hrs
[18] = test system: RAW264.7; test: Anti-inflammatory activity against mouse RAW264.7 cells assessed as inhibition of LPS-induced iNOS mRNA level pretreated for 1 hr followed by induced with LPS measured after 6 hrs by quantitative RT-PCR analysis; type: functional, cell-based; conditions: dose 2.5-20 µM, time 7.0 hrs
[19] = test system: RAW264.7; test: Inhibition of p38 MAPK protein level in LPS-induced mouse RAW264.7 cells at 2.5 to 10 uM pretreated for 1 hr followed by induced with LPS measured after 24 hrs by Western blot analysis; type: functional, cell-based; conditions: dose 2.5-10 µM, time 25.0 hrs
[20] = test system: RAW264.7; test: Anti-inflammatory activity against mouse RAW264.7 cells assessed as inhibition of LPS-induced TNFalpha level at 20 uM pretreated for 1 hr followed by induced with LPS measured after 24 hrs by ELISA (reference value: 0.61 ng/ml); type: functional; conditions: time 25 hrs
[21] = test system: RAW264.7; test: Anti-inflammatory activity against mouse RAW264.7 cells assessed as inhibition of LPS-induced IL-6 mRNA level pretreated for 1 hr followed by induced with LPS measured after 6 hrs by quantitative RT-PCR analysis; type: functional, cell-based; conditions: dose 2.5-20 µM, time 7.0 hrs
[22] = test system: RAW264.7; test: Inhibition of LPS-induced ERK phosphorylation in mouse RAW264.7 cells at 2.5 to 10 uM pretreated for 1 hr followed by induced with LPS measured after 24 hrs by Western blot analysis; type: cell-based; conditions: dose 2.5-10 µM, time 25.0 hrs
[23] = test system: RAW264.7; test: Anti-inflammatory activity against mouse RAW264.7 cells assessed as inhibition of LPS-induced COX2 level pretreated for 1 hr followed by induced with LPS measured after 24 hrs by Western blot analysis; type: functional, cell-based; conditions: dose 2.5-10 µM, time 25.0 hrs
[24] = test system: BV-2; test: Anti-inflammatory activity against […] assessed as inhibition of LPS-induced NO production at 2.5 to 20 uM measured after 24 hrs incubation by Griess assay; type: functional, cell-based; conditions: dose 2.5-20 µM
[25] = test system: RAW264.7; test: Inhibition of LPS-induced NFkappaB p65 translocation from cytosol to nucleus in mouse RAW264.7 cells at 2.5 to 10 uM pretreated for 1 hr followed by induced with LPS measured after 24 hrs by Western blot analysis; type: subcellular; conditions: dose 2.5-10 µM, time 25.0 hrs
[26] = test system: RAW264.7; test: Anti-inflammatory activity against mouse RAW264.7 cells assessed as inhibition of LPS-induced TNFalpha level at 5 uM pretreated for 1 hr followed by induced with LPS measured after 24 hrs by ELISA (reference value: 0.61 ng/ml); type: functional; conditions: time 25 hrs
[27] = target: c-Jun N-terminal kinase (Mus musculus) (UniProt Q91Y86+Q9WTU6+Q61831); test: Inhibition of LPS-induced JNK phosphorylation in mouse RAW264.7 cells at 2.5 to 10 uM pretreated for 1 hr followed by induced with LPS measured after 24 hrs by Western blot analysis; type: cell-based; conditions: dose 2.5-10 µM, time 25.0 hrs
Sequence of c-Jun N-terminal kinase (Mus musculus) (Q61831 whole entry, looked up): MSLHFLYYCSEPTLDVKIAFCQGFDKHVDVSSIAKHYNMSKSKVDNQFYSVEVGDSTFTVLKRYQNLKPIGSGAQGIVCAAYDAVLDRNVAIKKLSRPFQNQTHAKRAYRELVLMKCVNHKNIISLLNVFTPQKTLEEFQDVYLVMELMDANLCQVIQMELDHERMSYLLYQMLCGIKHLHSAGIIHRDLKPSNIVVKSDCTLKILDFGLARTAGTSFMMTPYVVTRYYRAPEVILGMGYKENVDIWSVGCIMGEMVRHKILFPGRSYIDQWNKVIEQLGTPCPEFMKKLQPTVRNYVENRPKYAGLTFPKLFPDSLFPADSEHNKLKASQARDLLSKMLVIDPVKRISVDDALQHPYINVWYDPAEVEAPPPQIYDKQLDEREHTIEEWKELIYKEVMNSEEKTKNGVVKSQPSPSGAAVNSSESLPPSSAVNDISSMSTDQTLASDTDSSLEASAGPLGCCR
Sequence of c-Jun N-terminal kinase (Mus musculus) (Q91Y86 whole entry, looked up): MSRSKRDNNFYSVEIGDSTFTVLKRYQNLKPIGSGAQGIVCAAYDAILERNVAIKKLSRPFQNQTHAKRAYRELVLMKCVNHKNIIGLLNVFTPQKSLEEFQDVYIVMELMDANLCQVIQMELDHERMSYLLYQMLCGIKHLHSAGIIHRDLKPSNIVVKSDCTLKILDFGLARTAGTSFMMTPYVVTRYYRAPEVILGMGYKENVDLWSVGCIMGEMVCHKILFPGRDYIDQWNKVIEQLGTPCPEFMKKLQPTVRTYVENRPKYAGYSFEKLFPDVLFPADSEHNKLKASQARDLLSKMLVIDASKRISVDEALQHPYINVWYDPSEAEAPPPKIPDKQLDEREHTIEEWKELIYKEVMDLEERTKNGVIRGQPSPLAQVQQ
Sequence of c-Jun N-terminal kinase (Mus musculus) (Q9WTU6 whole entry, looked up): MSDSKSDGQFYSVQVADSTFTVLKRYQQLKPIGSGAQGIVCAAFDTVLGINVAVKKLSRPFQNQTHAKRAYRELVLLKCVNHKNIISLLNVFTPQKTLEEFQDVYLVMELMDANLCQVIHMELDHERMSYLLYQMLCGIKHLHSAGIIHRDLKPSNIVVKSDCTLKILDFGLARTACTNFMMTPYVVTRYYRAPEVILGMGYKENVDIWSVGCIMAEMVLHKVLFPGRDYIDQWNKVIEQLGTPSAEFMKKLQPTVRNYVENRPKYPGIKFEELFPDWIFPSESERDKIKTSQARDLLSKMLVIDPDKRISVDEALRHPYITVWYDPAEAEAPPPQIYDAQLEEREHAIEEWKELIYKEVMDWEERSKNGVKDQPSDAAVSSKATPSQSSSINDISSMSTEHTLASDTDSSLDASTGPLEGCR

[28] = test system: RAW264.7; test: Anti-inflammatory activity against mouse RAW264.7 cells assessed as inhibition of LPS-induced TNFalpha level at 2.5 uM pretreated for 1 hr followed by induced with LPS measured after 24 hrs by ELISA (reference value: 0.61 ng/ml); type: functional; conditions: time 25 hrs
[29] = test system: RAW264.7; test: Anti-inflammatory activity against mouse RAW264.7 cells assessed as inhibition of LPS-induced TNFalpha level at 10 uM pretreated for 1 hr followed by induced with LPS measured after 24 hrs by ELISA (reference value: 0.61 ng/ml); type: functional; conditions: time 25 hrs
[30] = test system: RAW264.7; test: Inhibition of LPS-induced translocation of NFkappaB p65 heterodimer into nucleus in mouse RAW264.7 cells at 2.5 to 10 uM pretreated for 1 hr followed by induced with LPS measured after 24 hrs by Western blot analysis; type: subcellular; conditions: dose 2.5-10 µM, time 25.0 hrs

Compound: C[C@]12CC[C@H]3[C@@H](CC=C4C[C@@H](O)CC[C@@]43C)[C@@H]1CC[C@@H]2C1=NN(C2=NC(=O)CS2)C(c2ccc(Br)cc2)C1 (some centres not stated)
- pIC50 [1]: 5.64
- inhibition [2]: Dose-Dependent Effect
- inhibition [3]: Dose-Dependent Effect
- inhibition at 5 µM [4]: 45.4%
- viability at 24 h, 5 µM [5]: 85.5%

Compound: CCOc1ccc(C2CC([C@H]3CC[C@H]4[C@@H]5CC=C6C[C@@H](O)CC[C@]6(C)[C@H]5CC[C@]34C)=NN2C2=NC(=O)CS2)cc1 (some centres not stated)
- pIC50 [1]: 5.63
- inhibition [2]: Dose-Dependent Effect
- inhibition [3]: Dose-Dependent Effect
- inhibition at 5 µM [4]: 47.8%
- viability at 24 h, 5 µM [5]: 87.7%

Compound: C[C@]12CC[C@H]3[C@@H](CC=C4C[C@@H](O)CC[C@@]43C)[C@@H]1CC[C@@H]2C1=NN(C2=NC(=O)CS2)C(c2cccc(F)c2)C1 (some centres not stated)
- Activity [6]: 0.0378 ng/mL
- inhibition [7]: Dose-Dependent Effect
- pIC50 [1]: 5.63
- inhibition [2]: Dose-Dependent Effect
- inhibition [8]: Active
- inhibition [9]: Active
- inhibition [10]: Dose-Dependent Effect
- Activity [11]: inactive
- inhibition [12]: Dose-Dependent Effect
- Activity [13]: 0.0624 ng/mL
- inhibition [3]: Dose-Dependent Effect
- inhibition [14]: Dose-Dependent Effect
- inhibition [15]: inactive
- Activity [16]: 0.0824 ng/mL
- Activity [17]: 0.0428 ng/mL
- inhibition [18]: Dose-Dependent Effect
- Activity [19]: inactive
- Activity [20]: 0.3 ng/mL
- inhibition [21]: Dose-Dependent Effect
- inhibition at 5 µM [4]: 45.4%
- inhibition [22]: Active
- inhibition [23]: Dose-Dependent Effect
- inhibition [24]: Active
- inhibition [25]: Active
- Activity [26]: 0.42 ng/mL
- viability at 24 h, 5 µM [5]: 97.4%
- inhibition [27]: Active
- Activity [28]: 0.51 ng/mL
- Activity [29]: 0.33 ng/mL
- inhibition [30]: Active

Compound: Cc1ccc(C2CC([C@H]3CC[C@H]4[C@@H]5CC=C6C[C@@H](O)CC[C@]6(C)[C@H]5CC[C@]34C)=NN2C2=NC(=O)CS2)cc1 (some centres not stated)
- inhibition at 5 µM [4]: 35.4%
- viability at 24 h, 5 µM [5]: 88.5%

Compound: C[C@]12CC[C@H]3[C@@H](CC=C4C[C@@H](O)CC[C@@]43C)[C@@H]1CC[C@@H]2C1=NN(C2=NC(=O)CS2)C(c2ccc(S(C)(=O)=O)cc2)C1 (some centres not stated)
- inhibition at 5 µM [4]: 47.3%
- viability at 24 h, 5 µM [5]: 74.5%

Compound: COc1ccccc1C1CC([C@H]2CC[C@H]3[C@@H]4CC=C5C[C@@H](O)CC[C@]5(C)[C@H]4CC[C@]23C)=NN1C1=NC(=O)CS1 (some centres not stated)
- inhibition at 5 µM [4]: 55.5%
- viability at 24 h, 5 µM [5]: 70%

Compound: C[C@@H]1C[C@H]2[C@@H]3CCC4=CC(=O)C=C[C@]4(C)[C@@]3(F)[C@@H](O)C[C@]2(C)[C@@]1(O)C(=O)CO [DEXAMETHASONE]
- pIC50 [1]: 5.42
- inhibition [2]: Dose-Dependent Effect
- inhibition [3]: Dose-Dependent Effect
- inhibition at 5 µM [4]: 42.3%
- viability at 24 h, 5 µM [5]: 92%

Compound: C[C@]12CC[C@H]3[C@@H](CC=C4C[C@@H](O)CC[C@@]43C)[C@@H]1CC[C@@H]2C1=NN(C2=NC(=O)CS2)C(c2ccc(C#N)cc2)C1 (some centres not stated)
- pIC50 [1]: 5.16
- inhibition at 5 µM [4]: 48.8%
- viability at 24 h, 5 µM [5]: 93.4%

Compound: C[C@]12CC[C@H]3[C@@H](CC=C4C[C@@H](O)CC[C@@]43C)[C@@H]1CC[C@@H]2C1=NN(C2=NC(=O)CS2)C(c2ccc(Cl)cc2)C1 (some centres not stated)
- pIC50 [1]: 5.39
- inhibition at 5 µM [4]: 46.3%
- viability at 24 h, 5 µM [5]: 85.1%

From ChEMBL document CHEMBL5500377, “Design, synthesis and molecular modeling of novel D-ring substituted steroidal 4,5-dihydropyrazole thiazolinone derivatives as anti-inflammatory agents by inhibition of COX-2/iNOS production and down-regulation of NF-κB/MAPKs in LPS-induced RAW264.7 macrophage cells” (Eur J Med Chem, 2024)
